# Source: ChEMBL document CHEMBL1201862, “PubChem BioAssay data set” (2004)
# Where “and” joins values, the source holds several entries; their conditions need not be identical. Identical values can stand only once. Calls of active or inactive are those of the source.
# Experiments:
# Tumor necrosis factor = Tumor necrosis factor (Homo sapiens, UniProt P01375); assay: analog potency on TNFa NF-kB signaling – cell-based, revised, SAR follow-up (AID 2337); type: functional
# [1] = biological target: T1, Nucleotide-binding oligomerization domain-containing protein 1 (Homo sapiens, UniProt Q9Y239); assay: blockers of NOD1 pathway activity – revised, SAR follow-up (AID 2333); type: functional
# T1 sequence (Q9Y239 whole entry): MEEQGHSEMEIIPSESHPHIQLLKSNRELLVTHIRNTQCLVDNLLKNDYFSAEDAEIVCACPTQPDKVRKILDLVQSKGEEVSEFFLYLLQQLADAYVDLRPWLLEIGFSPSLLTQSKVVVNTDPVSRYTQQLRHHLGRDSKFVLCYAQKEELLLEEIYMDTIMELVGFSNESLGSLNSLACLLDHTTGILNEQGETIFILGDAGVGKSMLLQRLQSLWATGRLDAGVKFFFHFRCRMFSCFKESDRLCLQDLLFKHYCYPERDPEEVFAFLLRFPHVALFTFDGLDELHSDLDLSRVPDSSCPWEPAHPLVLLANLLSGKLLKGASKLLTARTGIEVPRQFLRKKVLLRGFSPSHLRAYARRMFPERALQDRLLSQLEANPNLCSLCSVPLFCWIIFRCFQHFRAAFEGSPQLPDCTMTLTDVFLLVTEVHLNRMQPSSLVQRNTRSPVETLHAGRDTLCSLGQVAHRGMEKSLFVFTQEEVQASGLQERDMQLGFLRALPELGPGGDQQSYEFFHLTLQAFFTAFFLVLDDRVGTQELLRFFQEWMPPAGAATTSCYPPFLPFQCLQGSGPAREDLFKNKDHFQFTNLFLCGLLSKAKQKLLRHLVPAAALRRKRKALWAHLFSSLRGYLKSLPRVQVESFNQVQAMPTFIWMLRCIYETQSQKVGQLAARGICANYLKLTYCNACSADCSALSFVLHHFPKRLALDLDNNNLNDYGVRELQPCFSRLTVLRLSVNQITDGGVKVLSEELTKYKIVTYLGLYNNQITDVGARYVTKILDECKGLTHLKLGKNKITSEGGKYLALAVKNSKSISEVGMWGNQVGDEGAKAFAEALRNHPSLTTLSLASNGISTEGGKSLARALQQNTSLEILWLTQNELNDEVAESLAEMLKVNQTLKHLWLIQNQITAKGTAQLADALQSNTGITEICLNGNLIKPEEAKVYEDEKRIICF
# [2] = biological target: Nucleotide-binding oligomerization domain-containing protein 2 (Homo sapiens, UniProt Q9HC29); assay: PubChem AID 2334; type: functional
# HEK293 = assay: cells; conditions: Homo sapiens;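 note: cells exposed to compound for 14 hours overnight before viability readout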
# [3] = Luminescence Cell-Based Dose Confirmation HTS to Identify Activators of 5'UTR Stem-Loop Driven Alpha-Synuclein mRNA Translation in H4 Neuroglioblastoma Cells. [Related pubchem assays: 1829 (Project Summary), 1814 (Primary HTS)]; type: functional
# H4 = assay: Luminescence Cell-Based Dose Response HTS to Identify Activators of 5'UTR Stem-Loop Driven Prion Protein mRNA Translation in H4 Neuroglioblastoma Cells. [Related pubchem assays: 1829 (Project Summary), 1814 (Primary HTS)]; type: functional; conditions: Homo sapiens
# NS3 = NS3 (Hepatitis C virus, UniProt A3EZJ3); assay: PubChem AID 2173; design: species or system Hepacivirus hominis
# Vero = assay: viability of Vero cells under compound – cytotoxicity control for flavivirus capping enzyme inhibitors (AID 588742); type: functional; conditions: Chlorocebus sabaeus
# Genome polyprotein = Genome polyprotein (dengue virus type 2, UniProt P29990); assay: flavivirus cap methylation enzyme inhibition – biochemical, confirmation dose response, primary screen (AID 588689); type: functional
# Protein Rev = Protein Rev (Human immunodeficiency virus type 1 group M subtype B (isolate HXB2)(HIV-1), UniProt P04618); assay: blockers of HIV Rev/RRE RNA complex – biochemical, fluorescence polarization, HIV-1, dose response (AID 434976); design: species or system Human immunodeficiency virus 1
# [4] = biological target: Female germline-specific tumor suppressor gld-1 (Caenorhabditis elegans, UniProt Q17339); assay: blockers of GLD-1/TGE RNA complex formation – biochemical, fluorescence polarization, C. elegans, dose response (AID 2802);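 note: fluorescence polarization of labeled TGE RNA bound by purified gld-1 protein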
# [5] = biological target: Acyl-homoserine lactone acylase PvdQ (Pseudomonas aeruginosa (strain LESB58), UniProt Q9I194); assay: PvdQ acylase enzyme activity blockers – biochemical, fluorescence, plate reader and imaging, cherry-picks, dose response (AID 493231)
# [6] = biological target: T2, Tyrosine-protein phosphatase non-receptor type 7 (Homo sapiens, UniProt P35236); type: functional
# T2 sequence (P35236 whole entry): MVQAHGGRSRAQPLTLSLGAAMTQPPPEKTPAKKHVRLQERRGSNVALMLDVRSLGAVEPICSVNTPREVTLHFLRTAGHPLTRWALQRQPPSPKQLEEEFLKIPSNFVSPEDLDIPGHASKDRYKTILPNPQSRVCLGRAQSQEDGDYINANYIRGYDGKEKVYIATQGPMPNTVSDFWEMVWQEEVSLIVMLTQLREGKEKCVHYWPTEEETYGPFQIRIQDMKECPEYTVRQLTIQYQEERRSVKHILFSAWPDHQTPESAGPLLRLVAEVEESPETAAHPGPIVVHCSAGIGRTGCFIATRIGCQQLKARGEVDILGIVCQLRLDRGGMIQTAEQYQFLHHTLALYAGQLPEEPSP
# [7] = biological target: Glyceraldehyde-3-phosphate dehydrogenase (Homo sapiens, UniProt P04406)
# [8] = biological target: T3, Dual specificity protein phosphatase 6 (Rattus norvegicus, UniProt Q64346)
# T3 sequence (Q64346 whole entry): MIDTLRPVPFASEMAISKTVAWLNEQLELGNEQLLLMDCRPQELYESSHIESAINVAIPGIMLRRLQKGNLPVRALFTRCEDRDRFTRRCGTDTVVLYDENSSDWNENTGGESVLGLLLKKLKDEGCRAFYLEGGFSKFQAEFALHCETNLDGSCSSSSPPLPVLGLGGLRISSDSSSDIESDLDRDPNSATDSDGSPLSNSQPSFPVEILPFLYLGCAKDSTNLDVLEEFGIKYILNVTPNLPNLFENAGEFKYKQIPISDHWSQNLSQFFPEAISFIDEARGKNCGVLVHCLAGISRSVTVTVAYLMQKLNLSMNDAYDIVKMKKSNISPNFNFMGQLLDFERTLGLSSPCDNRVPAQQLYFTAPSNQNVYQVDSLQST
# [9] = biological target: T3, Dual specificity protein phosphatase 6; type: functional
# X-box-binding protein 1 = X-box-binding protein 1 (Homo sapiens, UniProt P17861); type: functional, Cricetulus griseus;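 note: confirmatory dose-response counter-screen serving a CHOP assay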
# [10] = biological target: Luciferin 4-monooxygenase (Photinus pyralis, UniProt P08659); assay: inhibition of purified Photinus pyralis luciferase – biochemical, luminescence, dose response (AID 1891)
# [11] = Luminescence Cell-Based Dose Confirmation HTS to Identify Inhibitors of Platelet Dense Granule Release. [Related pubchem assays: 1663 (Primary HTS), 1678 (Summary of Project)]; type: functional
# [12] = CCR5-tropic HIV-1 fusion blockers – cell-based, CCR5-tropic Env, dose response (AID 2279); type: functional
# [13] = biological target: T4, Eukaryotic translation initiation factor 2-alpha kinase 3 (Homo sapiens, UniProt Q9NZJ5); assay: Dose response cell-based high-throughput screening assay to measure PERK inhibition. [Related pubchem assays: 1416 ]; type: functional
# T4 sequence (Q9NZJ5 whole entry): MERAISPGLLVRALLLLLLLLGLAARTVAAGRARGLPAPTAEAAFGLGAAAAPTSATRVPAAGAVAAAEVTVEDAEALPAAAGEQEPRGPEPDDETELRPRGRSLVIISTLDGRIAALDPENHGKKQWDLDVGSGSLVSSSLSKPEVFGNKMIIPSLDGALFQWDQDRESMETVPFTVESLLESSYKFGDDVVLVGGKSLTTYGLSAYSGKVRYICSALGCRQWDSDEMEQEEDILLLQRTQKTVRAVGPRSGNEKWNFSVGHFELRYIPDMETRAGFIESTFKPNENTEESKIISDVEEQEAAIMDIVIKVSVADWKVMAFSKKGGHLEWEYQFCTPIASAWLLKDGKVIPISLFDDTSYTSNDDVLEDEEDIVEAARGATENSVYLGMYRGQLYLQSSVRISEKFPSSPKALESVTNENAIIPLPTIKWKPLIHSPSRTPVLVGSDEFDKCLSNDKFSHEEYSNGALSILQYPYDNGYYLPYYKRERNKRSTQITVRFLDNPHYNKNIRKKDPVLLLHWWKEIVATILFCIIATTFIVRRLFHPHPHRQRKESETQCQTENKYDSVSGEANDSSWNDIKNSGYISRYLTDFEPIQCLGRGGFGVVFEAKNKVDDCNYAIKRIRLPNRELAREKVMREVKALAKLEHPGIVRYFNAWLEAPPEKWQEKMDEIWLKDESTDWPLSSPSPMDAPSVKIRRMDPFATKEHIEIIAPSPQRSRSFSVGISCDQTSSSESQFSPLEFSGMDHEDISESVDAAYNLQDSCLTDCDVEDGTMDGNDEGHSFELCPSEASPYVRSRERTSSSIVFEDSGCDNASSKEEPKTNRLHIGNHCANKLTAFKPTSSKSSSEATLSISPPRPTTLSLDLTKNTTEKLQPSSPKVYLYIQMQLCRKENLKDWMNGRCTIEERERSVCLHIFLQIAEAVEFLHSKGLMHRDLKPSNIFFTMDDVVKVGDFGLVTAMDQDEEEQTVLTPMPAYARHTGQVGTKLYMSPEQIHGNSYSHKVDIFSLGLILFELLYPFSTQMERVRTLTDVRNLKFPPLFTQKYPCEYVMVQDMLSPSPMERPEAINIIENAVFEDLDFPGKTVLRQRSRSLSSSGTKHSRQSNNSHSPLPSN
# [14] = biological target: T4, Eukaryotic translation initiation factor 2-alpha kinase 3; assay: Counterscreen assay for PERK inhibitors: Dose response cell-based high throughput screening assay to measure inhibition of PERK at 6 hours. [Related pubchem assays: 1522, 1416 ]; type: functional
compound,measurement,setting,value
O=C(Nc1ccc(Br)cc1)c1ccc(CN2CCc3ccccc3C2)cc1,IC50,Tumor necrosis factor,1.5 µM (active) and 10.9 µM (active)
same,IC50,[1],1.03 µM (active) and 399 nM (active)
same,IC50,[2],1.62 µM (active)
same,IC50,HEK293,> 20 µM (inactive)
COc1ccc(C(=O)C2=C(O)C(=O)N(c3ccccn3)C2c2ccc(C(C)C)cc2)cc1 (centres undefined),EC50,[3],22.4 µM (active)
same,EC50,H4,17 µM (active)
same,IC50,NS3,6.24 µM (active)
Cc1cc(N2C(=O)C(O)=C(C(=O)c3ccc(C)o3)C2c2cccc(Oc3ccccc3)c2)no1 (centres undefined),IC50,NS3,1.95 µM (active)
same,CC50,Vero,> 40 µM (active)
same,IC50,Genome polyprotein,32 µM (active)
Nc1cccc(C(=O)OCC(=O)Nc2cccc3c2C(=O)c2ccccc2C3=O)c1,IC50,Protein Rev,5.22 µM (active)
same,IC50,[4],1.96 µM (active)
CCOC(=O)c1ccc(N2C(=O)C(C)=C(C)C2=O)cc1,AC50,[5],25 µM (active)
CC(C)CNc1nc(=O)n(-c2ccc(F)cc2)c(=O)[nH]1,IC50,[6],> 100 µM (not active)
same,IC50,[7],> 100 µM (not active)
same,IC50,[8],> 100 µM (inactive)
same,IC50,[9],> 100 µM (inactive)
Cc1cc(/C=N/Nc2nc(N)ncc2[N+](=O)[O-])c(C)n1-c1cccc(C(F)(F)F)c1,Absolute IC50 (XBP1),X-box-binding protein 1,10 µM
CCOC(=O)c1sc(N2C(=O)C(O)=C(C(=O)c3ccc(C)o3)C2c2cccc([N+](=O)[O-])c2)nc1C (centres undefined),EC50,[10],> 112 µM (not active)
same,EC50,[11],18.5 µM (active)
same,IC50,[12],41.1 µM (active)
O=C(Nc1nc2ccccc2n1Cc1ccccc1Cl)c1ccco1,IC50,Tumor necrosis factor,> 20 µM (inactive)
same,IC50,[1],> 20 µM (inactive)
same,IC50,[2],> 20 µM (inactive)
same,IC50,HEK293,> 20 µM (inactive)
CCc1cccc(C)c1NC(=O)Nc1ccc2c(c1)OCO2,EC50,[13],> 55.7 µM (not active)
same,EC50,[14],> 55.7 µM (not active)
Cc1cc2ccccn2c1C(=O)C(=O)O,IC50,[6],> 100 µM (not active)
same,IC50,[7],> 100 µM (not active)
same,IC50,[8],> 100 µM (inactive)
same,IC50,[9],> 100 µM (inactive)
Cc1ccc2c(c1)C1C3CCC(C3)C1[S+]([O-])N2 (centres undefined),AC50,[5],25.6 µM (active)
CN1CCOCCOCCN(C)C(=O)N2CCOCCOCCN(CCOCC2)C1=O,EC50,[13],> 55.7 µM (not active)
same,EC50,[14],> 55.7 µM (not active)
